Reference: article PMC11727121, “Intrinsic PD‐L1 Degradation Induced by a Novel Self‐Assembling Hexapeptide for Enhanced Cancer Immunotherapy” (Advanced Science, 2024)
Square brackets hold non-standard residues; d marks the D form. Ends that are not written are not given here. Peptide text beside a SMILES is read from it. Met(O) = CS(=O)CC[C@H](N)C(=O)O

Columns and labels:
4T1 cells [1] = test: MTT cytotoxicity assay, 4T1 cells; format: cell-based, mouse; conditions: 24 h
Procedure: (§1) In Vitro Cell Cytotoxicity and Cell Apoptosis Assay
(§2) The cytotoxicity of KFM and KFMo were assessed as follows. Briefly, 4T1, MC38 and HUVEC cells were seeded on 96-well plate (5000 cells per well) overnight.
(§3) The cells were incubated with 100 µL fresh DMEM containing with various concentration of for 24 h, respectively. Moreover, the 4T1 and MC38 tumor cells co- […]
(§4) cells viability was evaluated using the MTT assay.
(§5) Subsequently, the cells at a density of 1 × 104 were cultivated into 96-well plate and then cultured with or without H2O2 (5 µM or 100 µM) for 24 h. The cells viability was evaluated using the MTT assay. […]

MC38 cells = test: MTT cytotoxicity assay, MC38 cells; format: cell-based, mouse; conditions: 24 h
Procedure: as §1, §2, §3, §4, §5

HUVEC cells = test: MTT cytotoxicity assay, HUVEC cells; format: cell-based, Human; conditions: 24 h
Procedure: as §1, §2, §3, §4, §5

PD-L1 [2] = test: Western blot analysis of PD-L1 expression in 4T1 cells; format: cell-based, mouse
Procedure: (§6) In vitro Immunogenic Cell Death Assay […]
(§7) presence of DAMPs within indicated treatments were examined by calreticulin (CRT) and high mobility group box 1 protein (HMGB1) expression level. Firstly, 5 × 104 […]
(§8) And then, fixed with 4% formaldehyde for 30 min at room temperature, and washed twice with PBS. A blocking solution of 10% goat serum was added to the wells and incubated for 50 min to minimize nonspecific antibody adsorption. The cells were treated with primary antibodies overnight at 4 ℃, subsequently, stained with FITC -labeled secondary antibodies for 2 h, followed by mounting solution with DAPI, images captured by fluorescence microscopy (Leica DMI3000B). The fluorescence intensity was analyzed using Image J.
(§9) Western Blotting Analysis
(§10) Cellular proteins were extracted with the lysis buffer containing 8 M urea, 0.05 M Tris-HCl (pH 7.5), 1% β-Mercaptoethanol, 1% protease inhibitor, and 1% phosphatase inhibitor, while tumor protein was extracted with the medium RIPA lysis buffer containing 1% protease inhibitor and 1% phosphatase inhibitors by 1-minute ultrasonication, then kept on ice for 30 minutes and microcentrifugated at 12,000 g for 15 minutes at 4 ℃ to remove debris. Immunoblotting was performed using 30 µg and 50 μg of protein lysates from cells and tumors, respectively . […]

PD-L1 [3] = test: Western blot analysis of PD-L1 expression in MC38 cells; format: cell-based, mouse; conditions: compared to PBS control
Procedure: as §6, §7, §8, §9, §10

4T1 cells [4] = test: Cell apoptosis assay by flow cytometry (Annexin V / PI); format: cell-based, mouse; conditions: 24 h, 5 µM MTX or equivalent, absence of H2O2
Procedure: In Vitro Cell Cytotoxicity and Cell Apoptosis Assay […]
plates at a density of 2 × 10^5 cells/well.
Following incubation, all cells were harvested and
stained with Annexin V and propidium iodide (PI) according to the manufacturer's
protocol. Apoptosis was immediately analyzed using flow cytometry.

4T1 cells [5] = test: In vitro immunogenic cell death assay (CRT, HMGB1); format: cell-based, mouse; conditions: 12 h, fluorescence staining
Procedure: as §6, §7, §8, §9, §10

MC38 tumor = test: In vivo antitumor study in MC38 tumor-bearing mice; conditions: MC38 model, peritumoral, MTX 1.5 mg/kg, MET 69.5 mg/kg equivalents, day 0 and 3, n = 5

Question: With C[S+]([O-])CC[C@H](NC(=O)[C@H](Cc1ccccc1)NC(=O)[C@H](CC[S+](C)[O-])NC(=O)[C@H](Cc1ccccc1)NC(=O)[C@@H](N)CCCCN)C(=O)N[C@@H](CCCCN)C(N)=O (stereo partly shown) [KFM°] (H-KF[Met(O)]F[Met(O)]K-NH2) as the compound, how does the “cytotoxicity of peptide (MTT)” value (4T1 cells [1]) read?
Answer: negligible cytotoxicity

Question: What about the “cytotoxicity of peptide (MTT)” value (MC38 cells) of the same compound?
Answer: negligible cytotoxicity

Question: What about the “cytotoxicity of peptide (MTT)” value (HUVEC cells) of the same compound?
Answer: negligible cytotoxicity

Question: CN(C)C(=N)N=C(N)N [MET, metformin] was tested. Which “PD-L1 expression (Western blot), in words” value (PD-L1 [2]) did it give?
Answer: reduced

Question: What about the “PD-L1 expression (Western blot), in words” value (PD-L1 [3]) of the same compound?
Answer: reduced

Question: Which results are given for O=C1c2c(O)ccc(O)c2C(=O)c2c(NCCNCCO)ccc(NCCNCCO)c21 [MTX, mitoxantrone]?
Answer: cytotoxicity of MTX formulations (MTT) (4T1 cells [1]; without H2O2): dose‐dependent cytotoxicity; cytotoxicity of MTX formulations (MTT) (MC38 cells; without H2O2): dose‐dependent cytotoxicity; percentage of apoptotic cells (4T1 cells [4]): 61.3%; CRT expression compared to PBS control, in words (4T1 cells [5]): marked increase; tumor growth (MC38 tumor): partially slowed tumor growth

Question: What does the source list for “KFMFMK-NH2 [KFM, Lys‐Phe‐Met‐Phe‐Met‐Lys]”?
Answer: cytotoxicity of peptide (MTT) (4T1 cells [1]): negligible cytotoxicity; cytotoxicity of peptide (MTT) (MC38 cells): negligible cytotoxicity; cytotoxicity of peptide (MTT) (HUVEC cells): negligible cytotoxicity
